# Active and inactive are the calls of the source.
# What was measured:
# H4 = assay: Luminescence Cell-Based Dose Response HTS to Identify Activators of 5'UTR Stem-Loop Driven Prion Protein mRNA Translation in H4 Neuroglioblastoma Cells. [Related pubchem assays: 1829 (Project Summary), 1814 (Primary HTS)]; assay type: functional; details: Homo sapiens
# [1] = viability of uninfected HEp-2 cells – cell-based, HTS, cytotoxicity control for RSV inhibitor project, dose response (AID 2410); assay type: functional; details: human respiratory syncytial virus
# [2] = Luminescence Cell-Based Dose Response HTS to Identify Activators of Luciferase Translation or Activity in H4 […] Cells. [Related pubchem assays: 1829 (Project Summary), 1814 (Primary HTS)]; assay type: functional
# [3] = Luminescence Cell-Based Dose Confirmation HTS to Identify Activators of 5'UTR Stem-Loop Driven Alpha-Synuclein mRNA Translation in H4 Neuroglioblastoma Cells. [Related pubchem assays: 1829 (Project Summary), 1814 (Primary HTS)]; assay type: functional
# Paired box protein Pax-8 = Paired box protein Pax-8 (Homo sapiens, UniProt Q06710); assay: PAX8 transcriptional activity inhibition in RMG-I – RMG-I cells, luciferase, cherry-pick, dose response (AID 687027); assay type: functional, cell-based;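 note: luciferase reporter driven by Pax8 target thyroperoxidase promoter measured by SteadyGlo luminescence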
# [4] = biological target: FAD-linked sulfhydryl oxidase ALR (Homo sapiens, UniProt P55789); assay: ALR-catalysed DTT oxidation blockers – biochemical, H2O2 detection, luminescence, cherry-pick, dose response (AID 493248)
# [5] = biological target: T1, Zinc finger protein mex-5 (Caenorhabditis elegans, UniProt Q9XUB2); assay: potency of MEX-5 RNA-binding blockers – biochemical, C. elegans, fluorescence polarization, dose response (AID 1960)
# T1 sequence (Q9XUB2 whole entry): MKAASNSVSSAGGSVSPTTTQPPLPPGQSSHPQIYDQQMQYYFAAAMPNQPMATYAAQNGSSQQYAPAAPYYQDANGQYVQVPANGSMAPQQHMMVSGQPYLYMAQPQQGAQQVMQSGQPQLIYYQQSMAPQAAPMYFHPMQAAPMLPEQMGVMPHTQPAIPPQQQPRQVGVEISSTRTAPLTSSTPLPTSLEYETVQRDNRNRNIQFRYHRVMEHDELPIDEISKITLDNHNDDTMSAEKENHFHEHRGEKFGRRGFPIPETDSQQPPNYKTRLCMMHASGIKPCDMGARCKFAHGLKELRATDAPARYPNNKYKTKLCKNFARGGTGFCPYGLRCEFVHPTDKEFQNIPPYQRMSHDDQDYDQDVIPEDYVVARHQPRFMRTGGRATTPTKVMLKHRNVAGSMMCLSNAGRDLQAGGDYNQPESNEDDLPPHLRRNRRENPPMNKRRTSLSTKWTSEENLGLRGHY
# [6] = biological target: T2, RNA-binding protein pos-1 (Caenorhabditis elegans, UniProt G5EF15); assay: disruptors of C. elegans POS-1 RNA interaction – biochemical, fluorescence polarization, dose response (AID 1964);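 note: purified POS-1 fused to maltose binding protein made in E. coli; potency of compounds blocking POS-1 binding to fluorescent RNA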
# T2 sequence (G5EF15 whole entry): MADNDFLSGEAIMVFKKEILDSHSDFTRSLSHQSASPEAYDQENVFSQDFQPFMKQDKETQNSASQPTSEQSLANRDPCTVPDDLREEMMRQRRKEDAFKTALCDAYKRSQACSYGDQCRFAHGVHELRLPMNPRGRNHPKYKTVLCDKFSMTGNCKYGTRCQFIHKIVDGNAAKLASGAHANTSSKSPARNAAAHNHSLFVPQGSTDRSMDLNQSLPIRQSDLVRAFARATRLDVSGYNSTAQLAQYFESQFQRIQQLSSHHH
# [7] = biological target: T3, Rac GTPase-activating protein 1 (Homo sapiens, UniProt Q9H0H5); assay: blockers of MgcRacGAP-driven Rac1 GTP hydrolysis – biochemical, ADP Hunter fluorescence, primary and confirmatory, confirmation (AID 624330); assay type: functional
# T3 sequence (Q9H0H5 whole entry): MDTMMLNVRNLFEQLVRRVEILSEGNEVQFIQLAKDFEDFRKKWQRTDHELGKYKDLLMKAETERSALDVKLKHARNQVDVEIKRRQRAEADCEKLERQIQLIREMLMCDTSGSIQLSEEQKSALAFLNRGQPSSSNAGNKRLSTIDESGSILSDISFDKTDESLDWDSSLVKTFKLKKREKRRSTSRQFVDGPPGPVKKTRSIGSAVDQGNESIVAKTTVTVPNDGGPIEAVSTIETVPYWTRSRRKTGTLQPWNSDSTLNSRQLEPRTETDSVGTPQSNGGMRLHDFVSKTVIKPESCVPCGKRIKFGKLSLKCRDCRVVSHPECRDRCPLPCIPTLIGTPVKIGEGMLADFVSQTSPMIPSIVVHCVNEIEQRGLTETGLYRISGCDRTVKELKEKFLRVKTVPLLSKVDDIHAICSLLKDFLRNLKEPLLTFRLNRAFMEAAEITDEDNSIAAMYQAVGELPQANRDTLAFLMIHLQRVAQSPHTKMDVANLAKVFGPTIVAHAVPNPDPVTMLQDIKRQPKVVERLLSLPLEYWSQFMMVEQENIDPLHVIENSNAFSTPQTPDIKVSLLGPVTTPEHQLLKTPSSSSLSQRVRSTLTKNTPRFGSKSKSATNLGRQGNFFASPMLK
# H9c2 = assay: cells; assay type: functional, cell-based; details: Rattus norvegicus, H9c2, Myocardium;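 note: confirmatory concentration-response retest of ultra-high-throughput screening hits for modulation of myocardial damage; cell death induced by hydrogen peroxide oxidative stress; compound pretreatment for 60 min then peroxide exposure for 2 h; potency is for protecting the cells against peroxide damage rather than for killing them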
# [8] = Trypanosoma cruzi growth suppression in host cells – NIH3T3 host cells, beta-gal luminescence, confirmation (AID 2044); assay type: functional, cell-based;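 note: intracellular parasites grown in NIH/3T3 mouse fibroblasts as host cells; luminescent beta-galactosidase reporter signal from transgenic T. cruzi replicating inside host cells; inhibitors lower the luminescence signal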
# [9] = NIH3T3 cell viability loss – ATP luminescence, mouse fibroblasts, counter-screen, dose response (AID 2010); assay type: functional, cell-based;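 note: cells exposed to compound for about 90 hours before reading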
# [10] = reduction of Shn3 3'UTR-driven luciferase in osteoblasts – cell-based, Clone20 osteoblasts, firefly luciferase, cherry-picked, dose response (AID 624132); assay type: functional;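 note: firefly luciferase luminescence from reporter carrying the Shn3 3'UTR in osteoblasts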
# [11] = non-specific 3'UTR reporter inhibition in Clone20-Shn3RL – cell-based, Renilla luciferase, cherry-picked, counter-screen for Shn3 inhibitor project, dose response (AID 624133); assay type: functional
# INS1 = assay: INS-1E survival protection against cytokine death – cell-based, luminescence, retest, dose response (AID 449756); assay type: functional; details: Rattus norvegicus;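 note: cell death triggered by IL-1 beta plus TNF-alpha plus IFN-gamma mixture; protective hits raise ATP signal compared with cytokine alone wells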
# FAD-linked sulfhydryl oxidase ALR, sequence (P55789 whole entry): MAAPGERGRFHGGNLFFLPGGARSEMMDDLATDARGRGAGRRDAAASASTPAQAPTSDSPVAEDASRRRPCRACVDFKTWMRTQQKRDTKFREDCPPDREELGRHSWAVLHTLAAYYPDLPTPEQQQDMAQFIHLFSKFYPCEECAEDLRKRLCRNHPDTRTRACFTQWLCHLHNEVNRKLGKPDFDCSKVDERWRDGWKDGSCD
# Paired box protein Pax-8, sequence (Q06710 whole entry): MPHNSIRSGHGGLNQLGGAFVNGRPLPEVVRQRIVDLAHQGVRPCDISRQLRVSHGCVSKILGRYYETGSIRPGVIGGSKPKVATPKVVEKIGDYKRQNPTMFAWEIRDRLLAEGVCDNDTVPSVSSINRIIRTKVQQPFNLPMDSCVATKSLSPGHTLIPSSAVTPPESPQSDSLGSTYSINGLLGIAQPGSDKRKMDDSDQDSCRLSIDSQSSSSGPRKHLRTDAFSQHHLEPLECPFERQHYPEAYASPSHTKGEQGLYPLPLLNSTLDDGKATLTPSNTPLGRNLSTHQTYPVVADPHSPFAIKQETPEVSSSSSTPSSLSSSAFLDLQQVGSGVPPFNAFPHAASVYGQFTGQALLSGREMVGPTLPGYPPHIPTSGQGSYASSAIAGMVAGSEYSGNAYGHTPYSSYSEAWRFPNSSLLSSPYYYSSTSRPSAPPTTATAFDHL
smiles,measurement,setting,value
CN1C/C(=C\c2ccc(N3CCOCC3)cc2)C(=O)/C(=C/c2ccc(N3CCOCC3)cc2)C1,EC50,H4,> 120 µM (not active)
same,CC50,[1],22.8 µM (active)
same,EC50,[2],48.1 µM (active)
same,EC50,[3],23.7 µM (active)
COc1ccc(C(=O)CCS(=O)(=O)c2ccc(C)cc2)cc1OC,AC50,Paired box protein Pax-8,9.82 µM (active)
COc1cc(OC)cc(C(=O)N2CCN=C2SCc2cccnc2)c1,AC50,[4],0.154 µM (active)
COc1cccc(C2c3c(oc4ccccc4c3=O)C(=O)N2Cc2ccco2)c1 (configuration not stated),EC50,H4,68 µM (active)
same,EC50,[5],150 µM (active)
same,EC50,[2],55.4 µM (active)
same,EC50,[6],36.3 µM (active)
same,EC50,[3],1.7 µM (active)
Cc1nc(SCc2ccc(C(=O)O)cc2)nc2c1CCCC2,AC50,[4],3.29 µM (active)
O=C(COc1ccc2ccccc2c1)N1CCN(Cc2ccncc2)CC1,IC50,[7],62.2 µM (active)
COc1ccc(CCNC(=O)c2cc3c(C)nccc3nc2O)cc1OC,IC50,H9c2,> 79 µM (inactive)
COc1cc(C)cc2oc(=O)c(CC(=O)N3CCN(C(=O)C4COc5ccccc5O4)CC3)c(C)c12 (configuration not stated),IC50,H9c2,> 79 µM (inactive)
Cc1ccc(-c2nnc(O)c3ccccc23)cc1S(=O)(=O)NCCN1CCOCC1,IC50,H9c2,14.2 µM (active)
CCCS(=O)(=O)N1CCN(C2Cc3ccccc3C2)CC1,IC50,[7],180 µM (active)
COc1cccc(C(=O)Nc2nnc(-c3ccc(Cl)cc3)o2)c1,IC50,H9c2,> 79 µM (inactive)
CC(=O)Oc1cc2oc(=O)cc(C)c2cc1Cl,AC50,[4],2.62 µM (active)
CCOC(=O)COc1cc(OCC(=O)OCC)c2c3c(c(=O)oc2c1)CCCC3,IC50,H9c2,10.5 µM (active)
CC1(c2ccccc2)NC(=O)N(CC(=O)Nc2ccc(S(=O)(=O)Nc3ncccn3)cc2)C1=O (configuration not stated),AC50,[4],0.675 µM (active)
O=C1COc2ccc(-c3nnc(O)c4ccccc34)cc2N1,IC50,H9c2,5.26 µM (active)
CCOc1cc(/C=C(\C#N)C(=O)NCc2cccnc2)ccc1O,IC50,[7],42.4 µM (active)
COc1cc(-c2cc(C(=O)O)c3c(OC)c(OC)c(OC)cc3n2)ccc1O,IC50,[7],126 µM (active)
CN(CC(=O)Nc1ccccc1Br)C(=O)CCc1nc(O)c2ccccc2n1,IC50,H9c2,12.7 µM (active)
Cc1cc(NC(=O)COC(=O)COc2ccc3c4c(c(=O)oc3c2)CCC4)no1,IC50,H9c2,13.1 µM (active)
COc1ccc(-c2cc(C(=O)N3CCN(c4ccccc4)CC3)c3ccccc3n2)cc1OC,IC50,H9c2,63.6 µM (inactive)
COc1ccc(C2NC(=O)CS2)cc1OC (configuration not stated),AC50,[4],0.093 µM (active)
CC(C)c1cc(C(N)=O)c(NC(=O)c2cccc(COc3ccc(Br)cc3)c2)s1,EC50,H4,0.366 µM (active)
same,EC50,[5],> 300 µM (not active)
same,EC50,[2],41.9 µM (active)
same,EC50,[6],> 300 µM (not active)
same,EC50,[8],1.87 µM (active)
same,EC50,[9],> 30 µM (not active)
same,EC50,[3],11.3 µM (active)
CSc1ccc(CN2CCN(Cc3ccccc3Cl)CC2)cc1,IC50,[7],95.1 µM (active)
COc1cc(CNc2ccc(C)c(C)c2)cc(OC)c1OC,AC50,[4],9.13 µM (active)
Cn1c(C(=O)Nc2ccc3c(c2)OCCO3)cc2c(=O)n(C)c3ccccc3c21,IC50,H9c2,> 79 µM (inactive)
COc1ccccc1CNc1ncc(-c2ccccc2)n1C,IC50,[7],49.5 µM (active)
CN(CC(=O)NCc1ccccc1)Cc1cccc(F)c1,IC50,[7],67 µM (active)
COc1cc2nc(O)n3nc(-c4ccccc4)nc3c2cc1OC,IC50,H9c2,> 79 µM (inactive)
Cc1ccc(S(=O)(=O)c2nc(S(=O)(=O)c3ccccc3)sc2N2CCN(C)CC2)cc1,AC50,Paired box protein Pax-8,7.56 µM (active)
O=C(c1cccs1)N1CCN(Cc2ccncc2)CC1,IC50,[7],88.5 µM (active)
CN(C)CCNC(C(=O)Nc1cccc(C(F)(F)F)c1)c1ccccc1 (configuration not stated),IC50,[7],76.5 µM (active)
CCN1C(=O)c2cccc3c(S(=O)(=O)Nc4ccc(O)c(C(=O)O)c4)ccc1c23,AC50,[4],1.55 µM (active)
CC(=O)N1c2ccc(S(=O)(=O)N3CCC(C(=O)N4CCN(c5cc(Cl)ccc5C)CC4)CC3)cc2CC1C (configuration not stated),AC50,[10],3.1 µM (active)
same,AC50,[11],6.67 µM (active)
COc1cc2ncnc(N[C@H](C)c3ccccc3)c2cc1OC,AC50,[10],8.72 µM (active)
same,AC50,[11],22.7 µM (active)
COc1cc2c(C#CCCCO)c(-c3ccsc3)oc(=O)c2cc1OC,IC50,H9c2,> 79 µM (inactive)
O=C(CCc1nc(O)c2ccccc2n1)NNC(=O)c1ccc(Cl)cc1,IC50,H9c2,> 79 µM (inactive)
COc1cccc(-c2cnc3c(NC=O)cc(-c4cccc(NC(C)=O)c4)cn23)c1,IC50,H9c2,> 79 µM (inactive)
CCN(CC(=O)Nc1ccc(OC)cc1)C(=O)CCc1nc(O)c2ccccc2n1,IC50,H9c2,> 79 µM (inactive)
CCN(CC)c1ccc(/C=N/Nc2nc(C)cc(C)n2)c(O)c1,IC50,[7],62.8 µM (active)
same,AC50,INS1,2.84 µM (active)
O=C(N/N=C/c1cn(-c2ccccc2)nc1-c1cccs1)c1ccccc1F,CC50,[1],25.6 µM (active)
same,IC50,H9c2,> 79 µM (inactive)
Cc1nc2c(c(=O)n1CCC1=CCCCC1)c1nc3ccccc3nc1n2/N=C/c1ccccc1,IC50,H9c2,> 79 µM (inactive)
CCCCCCn1c(C)nc2c(c1=O)c1nc3ccccc3nc1n2/N=C/c1ccco1,IC50,H9c2,23.3 µM (active)
COc1cc(/C=N/Nc2cc(C)nc(NS(=O)(=O)c3ccccc3)n2)ccc1O,IC50,[7],37.8 µM (active)
COc1ccc(OCC(=O)N/N=C/c2cccc3cccnc23)cc1,IC50,H9c2,> 79 µM (inactive)
CCN(CC)c1ccc(NC(=O)COC(=O)CCc2cc(OC)c(OC)c(OC)c2)cc1,IC50,[7],81.1 µM (active)
C[C@@H]1CN([C@@H](C)CO)C(=O)c2cc(NC(=O)Nc3ccc(C(F)(F)F)cc3)ccc2O[C@@H](C)CCCCO[C@H]1CN(C)Cc1ccc(Cl)c(Cl)c1,AC50,Paired box protein Pax-8,9.66 µM (active)
C[C@@H]1CCCCO[C@@H](CN(C)Cc2ccc(C(F)(F)F)cc2)[C@H](C)CN([C@H](C)CO)C(=O)c2cc(NC(=O)Cc3ccccc3)ccc2O1,AC50,Paired box protein Pax-8,4.62 µM (active)
COc1cc(/C=N/NC(=O)c2cc(-c3ccc4c(c3)OCO4)[nH]n2)ccc1O,AC50,[4],0.408 µM (active)
Cc1ccc(NC(=O)CCC(=O)N/N=C/c2ccc(O)cc2)cc1,IC50,[7],51.4 µM (active)
O=C(CN1CCCc2ccccc21)N/N=C/c1ccc(O)cc1O,AC50,[4],2.35 µM (active)
C/C(=N\NC(=O)c1ccc(N/N=C(\C)c2ccncc2)cc1)c1ccncc1,AC50,[4],0.107 µM (active)
Oc1ccc(/C=N/NC(=S)NCc2ccco2)cc1,IC50,[7],35.3 µM (active)
COc1cc(-c2ccc(N)c(OC)c2)ccc1N,IC50,[7],9 µM (active)
COc1ccc([C@@]23Oc4cc(OC)cc(OC)c4[C@]2(O)[C@H](O)[C@H](C(=O)N(C)C)[C@H]3c2ccccc2)cc1 [ROCAGLAMIDE],AC50,[10],< 0.26 µM (active)
same,AC50,[11],0.889 µM (active)

# From ChEMBL document CHEMBL1201862, “PubChem BioAssay data set” (2004)
